SMILES strings stand for the structures.

Data set [1] in a line: Literature rifampin plasma concentration in rats after oral 20 mg/kg. Format: in vivo, rat. The settings on record: oral rifampin 20 mg/kg, from literature plasma concentration and protein binding ref 23, 39, 40.
Details of data set [2]: method as in PMID 25297453, PMID 22139693, PMID 26725427. As to conditions: rats ref 23, 39, 40; cited from earlier work.
On the set-up of data set [3]: method as in PMID 25297453, PMID 22139693, PMID 26725427. As to conditions: rats, cited from earlier work.
Data set [4] concerns the target T1, OATP1B3 (Homo sapiens, UniProt Q9NPD5).
T1 sequence (Q9NPD5 1-702): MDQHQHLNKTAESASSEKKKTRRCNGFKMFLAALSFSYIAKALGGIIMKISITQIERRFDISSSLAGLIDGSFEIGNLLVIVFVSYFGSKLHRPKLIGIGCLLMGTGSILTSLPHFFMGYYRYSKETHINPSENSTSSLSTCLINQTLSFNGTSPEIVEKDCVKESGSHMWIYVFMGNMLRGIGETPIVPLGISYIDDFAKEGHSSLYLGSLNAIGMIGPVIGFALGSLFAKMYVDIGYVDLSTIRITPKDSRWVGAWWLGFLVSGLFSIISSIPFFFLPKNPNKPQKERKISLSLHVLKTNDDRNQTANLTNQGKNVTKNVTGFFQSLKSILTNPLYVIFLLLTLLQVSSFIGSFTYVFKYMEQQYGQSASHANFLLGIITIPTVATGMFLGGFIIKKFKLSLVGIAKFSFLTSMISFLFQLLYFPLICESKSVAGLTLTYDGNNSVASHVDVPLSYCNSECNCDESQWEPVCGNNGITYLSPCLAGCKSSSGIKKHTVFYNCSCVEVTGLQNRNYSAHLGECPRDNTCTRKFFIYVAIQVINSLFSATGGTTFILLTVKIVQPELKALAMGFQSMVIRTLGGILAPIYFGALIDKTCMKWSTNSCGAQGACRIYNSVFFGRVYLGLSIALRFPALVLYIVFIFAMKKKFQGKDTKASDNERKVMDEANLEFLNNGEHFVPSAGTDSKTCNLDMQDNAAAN
Briefly: Inhibition of OATP1B3-mediated [3H]estradiol-17β-D-glucuronide uptake in HEK293-OATP1B3 cells. As for the experimental part:
(§1) HEK293 cells overexpressing the OCT1, OCT2, OAT1, OAT3, OATP1B1, and OATP1B3 transporters (HEK293-OCT1, -OCT2, -OAT1, -OAT3, -OATP1B1, and -OATP1B3, respectively) and HEK293-mock cells (Corning Life Sciences; Woburn, MA, USA) were used and characterized as previously described.
(§2) HEK293 cells overexpressing drug transporters and HEK293-mock cells were seeded in poly-D-lysine-coated 96-well plates at a density of 10^5 cells/well and were cultured in DMEM supplemented with 10% FBS, 5 mM non-essential amino acids, and 2 mM sodium butyrate in a humidified atmosphere with 8% CO2 at 37 °C.
(§3) To examine the effects of ginsenosides and typical inhibitors on transporter activity, aliquots (100 μL) of HBSS containing the probe substrate and ginsenosides or typical inhibitors were added to the cells after aspirating pre-incubated HBSS. The concentrations and probe substrates were as follows: 0.1 μM [^3H]MPP^+ for OCT1 and OCT2, 0.1 μM [^3H]PAH for OAT1, 0.1 μM [^3H]ES for OAT3 and OATP1B1, and 0.1 μM [^3H]EG for OATP1B3. […] Then the uptake of probe substrates into HEK293-mock cells and HEK293-OCT1, -OCT2, -OAT1, -OAT3, -OATP1B1, and -OATP1B3 cells in the presence and absence of typical inhibitor or each ginsenoside with previously described concentration range was measured for 5 min. Immediately after placing the plates on ice, the cells were washed three times with 100 μL of ice-cold HBSS, followed by lysing with 50 μL of 10% SDS solution and mixing with 150 μL of Optiphase cocktail solution (Perkin Elmer Inc., Boston, MA, USA). The radioactivity of the probe substrates in the cells was determined using a liquid scintillation counter.
(§4) In the inhibition studies, the uptake rate of substrate by HEK293 cells overexpressing the respective transporters was used as the control (100%) and the uptake rate of substrates in the presence of typical inhibitors or ginsenosides expressed as a percentage of the control. The inhibition data were fitted to an inhibitory effect model using Sigma plot (version 10.0; Systat Software Inc., San Jose, CA, USA). IC50 value indicated the half-maximal inhibitory concentration of the inhibitor.

Data set [5] has as its target T1, OATP1B3. The data set is described as follows: Inhibition of OATP1B3-mediated valsartan uptake in HEK293-OATP1B3 cells. It counts as cell-based. The arrangement: host or cells: HEK293. As to conditions: 5 μM valsartan, 5 min. As for the experimental part:
(§5) Transporter mediated uptake of probe substrates or valsartan was calculated by subtracting the uptake rate of probe substrates or valsartan into HEK293-mock cells from that into HEK293 cells expressing respective transporters.

Data set [6] concerns the target T2, OATP1B1 (Homo sapiens, UniProt Q9Y6L6).
T2 sequence (Q9Y6L6 1-691): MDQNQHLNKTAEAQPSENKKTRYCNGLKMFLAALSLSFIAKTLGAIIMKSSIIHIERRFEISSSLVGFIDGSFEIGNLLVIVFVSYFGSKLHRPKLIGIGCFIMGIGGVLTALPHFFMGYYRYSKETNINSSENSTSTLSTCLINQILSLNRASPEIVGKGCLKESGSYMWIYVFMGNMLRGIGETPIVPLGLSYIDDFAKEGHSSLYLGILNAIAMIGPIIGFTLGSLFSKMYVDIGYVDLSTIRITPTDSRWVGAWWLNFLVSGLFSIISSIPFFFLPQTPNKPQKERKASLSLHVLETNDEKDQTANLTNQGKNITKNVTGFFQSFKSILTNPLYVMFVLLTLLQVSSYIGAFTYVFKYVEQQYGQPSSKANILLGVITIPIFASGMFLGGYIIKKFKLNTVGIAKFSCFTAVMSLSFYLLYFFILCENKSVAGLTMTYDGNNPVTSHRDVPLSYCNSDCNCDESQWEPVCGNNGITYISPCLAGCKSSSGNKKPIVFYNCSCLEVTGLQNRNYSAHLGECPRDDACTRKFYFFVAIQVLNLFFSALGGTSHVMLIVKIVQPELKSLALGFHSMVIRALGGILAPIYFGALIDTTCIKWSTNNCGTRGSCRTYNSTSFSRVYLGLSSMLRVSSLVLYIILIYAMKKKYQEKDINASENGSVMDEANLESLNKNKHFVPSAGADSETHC
The data set is described as follows: Inhibition of OATP1B1-mediated [3H]estrone-3-sulfate uptake in HEK293-OATP1B1 cells. As for the experimental part:
as §1, §2, §3, §4

Data set [7] deals with T2, OATP1B1. The data set is described as follows: Inhibition of OATP1B1-mediated valsartan uptake in HEK293-OATP1B1 cells. It counts as cell-based. The arrangement: host or cells: HEK293. As to conditions: 5 μM valsartan, 5 min. As for the experimental part: as §5

Turning to `CO[C@H]1/C=C/O[C@@]2(C)Oc3c(C)c(O)c4c(O)c(c(/C=N/N5CCN(C)CC5)c(O)c4c3C2=O)NC(=O)/C(C)=C\C=C\[C@H](C)[C@H](O)[C@@H](C)[C@@H](O)[C@@H](C)[C@H](OC(C)=O)[C@@H]1C` [Rifampin, rifampin, reference compound], in data set [1], the “unbound concentration of rifampin” value is 4.7 to 22.9 µM. In data set [2], the “protein binding of rifampin” value was 23.1%. Further, in data set [3] (oral rifampin 20 mg/kg ref 23, 39, 40), the Cmax of rifampin is 15700 to 24500 ng/mL. In addition, in data set [3] (oral rifampin 20 mg/kg, for 12 h ref 23, 39, 40), the “plasma concentration of rifampin” value is given as “over 5 μg/mL”. Moreover, the IC50 – broadly, the concentration that gives 50% inhibition – amounted to 0.81 µM in data set [4], 3.6 µM in data set [5], 28.6 µM in data set [6] and 13.8 µM in data set [7].

(Values after publication PMC7037682, “Herb–Drug Interaction of Red Ginseng Extract and Ginsenoside Rc with Valsartan in Rats” (Molecules, 2020).)
